Assay results taken from US7820623B2 (priority 2006, dated 2010).
pIC50: −log10 of the molar value. Bridge positions count the residues as written; N and C are the ends. Square brackets hold non-standard residues; d marks the D form. Peptide text beside a SMILES is read from it. 1Nal = N[C@@H](Cc1cccc2ccccc12)C(=O)O

Legend:
[1] = test system: thapsigargin-induced IFN-g production in human whole blood; format: cell-based; settings: read-out: Analogue Activity (IC50) WB/IFNg
[2] = test system: thapsigargin-induced IL-2 production in human whole blood; settings: read-out: Analogue Activity (IC50) WB/IL-2

Compound | pIC50 [1] | pIC50 [2]
CC[C@H](C)[C@@H]1NC(=O)[C@H](CCCCN)NC(=O)[C@@H](NC(=O)[C@H](CCCCN)NC(=O)[C@@H](NC(=O)[C@H](CC(N)=O)NC(=O)[C@@H](NC(=O)[C@@H](NC(=O)[C@@H](NC(=O)CN)C(C)C)[C@@H](C)CC)[C@@H](C)CC)C(C)C)CSSC[C@@H]2NC(=O)[C@H](CCCCN)NC(=O)CNC(=O)[C@H](Cc3ccccc3)NC(=O)[C@H](CCCNC(=N)N)NC(=O)[C@H](CCSC)NC(=O)CNC(=O)[C@H](C)NC(=O)[C@H](Cc3cccc4ccccc34)NC(=O)[C@H](CCCCN)NC(=O)[C@@H]3CSSC[C@@H](C(=O)N[C@H](C(=O)N4CCC[C@H]4C(=O)N[C@@H](CCCCN)C(=O)O)[C@@H](C)O)NC(=O)[C@H](Cc4c[nH]cn4)NC(=O)[C@H](CSSC[C@H](NC(=O)[C@H](CCC(N)=O)NC(=O)[C@H](CCCNC(=N)N)NC(=O)[C@H](CO)NC1=O)C(=O)N[C@@H](CC(C)C)C(=O)N[C@@H](CCC(=O)O)C(=O)N1CCC[C@H]1C(=O)N3)NC(=O)[C@H](CCCCN)NC(=O)CNC(=O)[C@H](CC(N)=O)NC(=O)[C@H](CCSC)NC2=O [K20Nal] (H-GVIINVKCKISRQCLEPCK[1Nal]AGMRFGKCMNGKCHCTPK-OH; disulfide 8-28, 14-33, 18-35) | 9.90 | 10.13
CC[C@H](C)[C@@H]1NC(=O)[C@H](CCCCN)NC(=O)[C@@H](NC(=O)[C@H](CCCCN)NC(=O)[C@@H](NC(=O)[C@H](CC(N)=O)NC(=O)[C@@H](NC(=O)[C@@H](NC(=O)[C@@H](NC(=O)CN)C(C)C)[C@@H](C)CC)[C@@H](C)CC)C(C)C)CSSC[C@@H]2NC(=O)[C@H](CCCCN)NC(=O)CNC(=O)[C@H](Cc3ccccc3)NC(=O)[C@H](CCCNC(=N)N)NC(=O)[C@H](CCSC)NC(=O)CNC(=O)[C@H](C)NC(=O)[C@H](CCCNC(=N)N)NC(=O)[C@H](CCCCN)NC(=O)[C@@H]3CSSC[C@@H](C(=O)N[C@H](C(=O)N4CCC[C@H]4C(=O)N[C@@H](CCCCN)C(=O)O)[C@@H](C)O)NC(=O)[C@H](Cc4c[nH]cn4)NC(=O)[C@H](CSSC[C@H](NC(=O)[C@H](CCC(N)=O)NC(=O)[C@H](CCCNC(=N)N)NC(=O)[C@H](CO)NC1=O)C(=O)N[C@@H](CC(C)C)C(=O)N[C@@H](CCC(=O)O)C(=O)N1CCC[C@H]1C(=O)N3)NC(=O)[C@H](CCCCN)NC(=O)CNC(=O)[C@H](CC(N)=O)NC(=O)[C@H](CCSC)NC2=O [K20R] (H-GVIINVKCKISRQCLEPCKRAGMRFGKCMNGKCHCTPK-OH; disulfide 8-28, 14-33, 18-35) | 10.08 | 10.17
CC[C@H](C)[C@@H]1NC(=O)[C@H](CCCCN)NC(=O)[C@@H](NC(=O)[C@H](CCCCN)NC(=O)[C@@H](NC(=O)[C@H](CC(N)=O)NC(=O)[C@@H](NC(=O)[C@@H](NC(=O)[C@@H](NC(=O)CN)C(C)C)[C@@H](C)CC)[C@@H](C)CC)C(C)C)CSSC[C@@H]2NC(=O)[C@H](CCC(=O)O)NC(=O)CNC(=O)[C@H](Cc3ccccc3)NC(=O)[C@H](CCCNC(=N)N)NC(=O)[C@H](CCSC)NC(=O)CNC(=O)[C@H](C)NC(=O)[C@H](CCCCN)NC(=O)[C@H](CCCCN)NC(=O)[C@@H]3CSSC[C@@H](C(=O)N[C@H](C(=O)N4CCC[C@H]4C(=O)N[C@@H](CCCCN)C(=O)O)[C@@H](C)O)NC(=O)[C@H](Cc4c[nH]cn4)NC(=O)[C@H](CSSC[C@H](NC(=O)[C@H](CCC(N)=O)NC(=O)[C@H](CCCNC(=N)N)NC(=O)[C@H](CO)NC1=O)C(=O)N[C@@H](CC(C)C)C(=O)N[C@@H](CCC(=O)O)C(=O)N1CCC[C@H]1C(=O)N3)NC(=O)[C@H](CCCCN)NC(=O)CNC(=O)[C@H](CC(N)=O)NC(=O)[C@H](CCSC)NC2=O [K27E] (H-GVIINVKCKISRQCLEPCKKAGMRFGECMNGKCHCTPK-OH; disulfide 8-28, 14-33, 18-35) | 8.15 | 8.26
CC[C@H](C)[C@@H]1NC(=O)[C@H](CCCCN)NC(=O)[C@@H](NC(=O)[C@H](CCCCN)NC(=O)[C@@H](NC(=O)[C@H](CC(N)=O)NC(=O)[C@@H](NC(=O)[C@@H](NC(=O)[C@@H](NC(=O)CN)C(C)C)[C@@H](C)CC)[C@@H](C)CC)C(C)C)CSSC[C@@H]2NC(=O)[C@H](Cc3cccc4ccccc34)NC(=O)CNC(=O)[C@H](Cc3ccccc3)NC(=O)[C@H](CCCNC(=N)N)NC(=O)[C@H](CCSC)NC(=O)CNC(=O)[C@H](C)NC(=O)[C@H](CCCCN)NC(=O)[C@H](CCCCN)NC(=O)[C@@H]3CSSC[C@@H](C(=O)N[C@H](C(=O)N4CCC[C@H]4C(=O)N[C@@H](CCCCN)C(=O)O)[C@@H](C)O)NC(=O)[C@H](Cc4c[nH]cn4)NC(=O)[C@H](CSSC[C@H](NC(=O)[C@H](CCC(N)=O)NC(=O)[C@H](CCCNC(=N)N)NC(=O)[C@H](CO)NC1=O)C(=O)N[C@@H](CC(C)C)C(=O)N[C@@H](CCC(=O)O)C(=O)N1CCC[C@H]1C(=O)N3)NC(=O)[C@H](CCCCN)NC(=O)CNC(=O)[C@H](CC(N)=O)NC(=O)[C@H](CCSC)NC2=O [K27Nal] (H-GVIINVKCKISRQCLEPCKKAGMRFG[1Nal]CMNGKCHCTPK-OH; disulfide 8-28, 14-33, 18-35) | 7.57 | 7.82
CC[C@H](C)[C@@H]1NC(=O)[C@H](CCCCN)NC(=O)[C@@H](NC(=O)[C@H](CCCCN)NC(=O)[C@@H](NC(=O)[C@H](CC(N)=O)NC(=O)[C@@H](NC(=O)[C@@H](NC(=O)[C@@H](NC(=O)CN)C(C)C)[C@@H](C)CC)[C@@H](C)CC)C(C)C)CSSC[C@@H]2NC(=O)[C@H](CCCNC(=N)N)NC(=O)CNC(=O)[C@H](Cc3ccccc3)NC(=O)[C@H](CCCNC(=N)N)NC(=O)[C@H](CCSC)NC(=O)CNC(=O)[C@H](C)NC(=O)[C@H](CCCCN)NC(=O)[C@H](CCCCN)NC(=O)[C@@H]3CSSC[C@@H](C(=O)N[C@H](C(=O)N4CCC[C@H]4C(=O)N[C@@H](CCCCN)C(=O)O)[C@@H](C)O)NC(=O)[C@H](Cc4c[nH]cn4)NC(=O)[C@H](CSSC[C@H](NC(=O)[C@H](CCC(N)=O)NC(=O)[C@H](CCCNC(=N)N)NC(=O)[C@H](CO)NC1=O)C(=O)N[C@@H](CC(C)C)C(=O)N[C@@H](CCC(=O)O)C(=O)N1CCC[C@H]1C(=O)N3)NC(=O)[C@H](CCCCN)NC(=O)CNC(=O)[C@H](CC(N)=O)NC(=O)[C@H](CCSC)NC2=O [K27R] (H-GVIINVKCKISRQCLEPCKKAGMRFGRCMNGKCHCTPK-OH; disulfide 8-28, 14-33, 18-35) | 7.97 | 7.82
CC[C@H](C)[C@@H]1NC(=O)[C@H](CCCCN)NC(=O)[C@@H](NC(=O)[C@H](CCCCN)NC(=O)[C@@H](NC(=O)[C@H](CC(N)=O)NC(=O)[C@@H](NC(=O)[C@@H](NC(=O)[C@@H](NC(=O)CN)C(C)C)[C@@H](C)CC)[C@@H](C)CC)C(C)C)CSSC[C@@H]2NC(=O)[C@H](CCCCN)NC(=O)CNC(=O)[C@H](Cc3ccccc3)NC(=O)[C@H](CCCNC(=N)N)NC(=O)[C@H](CCSC)NC(=O)CNC(=O)[C@H](C)NC(=O)[C@H](CCCCN)NC(=O)[C@H](CCCCN)NC(=O)[C@@H]3CSSC[C@@H](C(=O)N[C@H](C(=O)N4CCC[C@H]4C(=O)N[C@@H](CCCCN)C(=O)O)[C@@H](C)O)NC(=O)[C@H](Cc4c[nH]cn4)NC(=O)[C@H](CSSC[C@H](NC(=O)[C@H](CCC(N)=O)NC(=O)[C@H](CCCNC(=N)N)NC(=O)[C@H](CO)NC1=O)C(=O)N[C@@H](CC(C)C)C(=O)N[C@@H](CCC(=O)O)C(=O)N1CCC[C@H]1C(=O)N3)NC(=O)[C@H](CCC(=O)O)NC(=O)CNC(=O)[C@H](CC(N)=O)NC(=O)[C@H](CCSC)NC2=O [K32E] (H-GVIINVKCKISRQCLEPCKKAGMRFGKCMNGECHCTPK-OH; disulfide 8-28, 14-33, 18-35) | 10.20 | 10.21
CC[C@H](C)[C@@H]1NC(=O)[C@H](CCCCN)NC(=O)[C@@H](NC(=O)[C@H](CCCCN)NC(=O)[C@@H](NC(=O)[C@H](CC(N)=O)NC(=O)[C@@H](NC(=O)[C@@H](NC(=O)[C@@H](NC(=O)CN)C(C)C)[C@@H](C)CC)[C@@H](C)CC)C(C)C)CSSC[C@@H]2NC(=O)[C@H](CCCCN)NC(=O)CNC(=O)[C@H](Cc3ccccc3)NC(=O)[C@H](CCCNC(=N)N)NC(=O)[C@H](CCSC)NC(=O)CNC(=O)[C@H](C)NC(=O)[C@H](CCCCN)NC(=O)[C@H](CCCCN)NC(=O)[C@@H]3CSSC[C@@H](C(=O)N[C@H](C(=O)N4CCC[C@H]4C(=O)N[C@@H](CCCCN)C(=O)O)[C@@H](C)O)NC(=O)[C@H](Cc4c[nH]cn4)NC(=O)[C@H](CSSC[C@H](NC(=O)[C@H](CCC(N)=O)NC(=O)[C@H](CCCNC(=N)N)NC(=O)[C@H](CO)NC1=O)C(=O)N[C@@H](CC(C)C)C(=O)N[C@@H](CCC(=O)O)C(=O)N1CCC[C@H]1C(=O)N3)NC(=O)[C@H](CCCNC(=N)N)NC(=O)CNC(=O)[C@H](CC(N)=O)NC(=O)[C@H](CCSC)NC2=O [K32R] (H-GVIINVKCKISRQCLEPCKKAGMRFGKCMNGRCHCTPK-OH; disulfide 8-28, 14-33, 18-35) | 10.47 | 10.55
CC[C@H](C)[C@@H]1NC(=O)[C@H](CCCCN)NC(=O)[C@@H](NC(=O)[C@H](CCCCN)NC(=O)[C@@H](NC(=O)[C@H](CC(N)=O)NC(=O)[C@@H](NC(=O)[C@@H](NC(=O)[C@@H](NC(=O)CN)C(C)C)[C@@H](C)CC)[C@@H](C)CC)C(C)C)CSSC[C@@H]2NC(=O)[C@H](CCCCN)NC(=O)CNC(=O)[C@H](Cc3ccccc3)NC(=O)[C@H](CCCNC(=N)N)NC(=O)[C@H](CCSC)NC(=O)CNC(=O)[C@H](C)NC(=O)[C@H](CCCCN)NC(=O)[C@H](CCCCN)NC(=O)[C@@H]3CSSC[C@@H](C(=O)N[C@H](C(=O)N4CCC[C@H]4C(=O)N[C@@H](CCC(=O)O)C(=O)O)[C@@H](C)O)NC(=O)[C@H](Cc4c[nH]cn4)NC(=O)[C@H](CSSC[C@H](NC(=O)[C@H](CCC(N)=O)NC(=O)[C@H](CCCNC(=N)N)NC(=O)[C@H](CO)NC1=O)C(=O)N[C@@H](CC(C)C)C(=O)N[C@@H](CCC(=O)O)C(=O)N1CCC[C@H]1C(=O)N3)NC(=O)[C@H](CCCCN)NC(=O)CNC(=O)[C@H](CC(N)=O)NC(=O)[C@H](CCSC)NC2=O [K38E] (H-GVIINVKCKISRQCLEPCKKAGMRFGKCMNGKCHCTPE-OH; disulfide 8-28, 14-33, 18-35) | 9.15 | 9.28
